Results reported in patent US9868758B2, “Betulinic proline imidazole derivatives as HIV inhibitors” (HETERO LABS LIMITED, priority 2014, dated 2018).
Read-outs that look alike come from different tables or passages of the source.

Columns and labels:
[1] = system: HIV-1 strains, for e.g., 92HT599; assay: Antiviral activity: p24 estimation in HIV-1 infected MT-2 cells; type: cell-based; conditions: for inhibition at 0.01 µM / inhibition at 0.1 µM / inhibition at 1 µM: p24, ~96 hours
Protocol: MT-2 cells were infected with required number of TCID50's of HIV-1 strains, for e.g., 92HT599. The infected cells were plated at the concentration of 30,000 cells per well in a 96 well plate. Test compound was added to the 96 well plate with the final concentration of DMSO (vehicle—not more than 1%). The plates are then incubated in a CO2 incubator for ˜96 hours (˜4 days) for viral infection. At the end of incubation period an aliquot from each well was taken for p24 estimation. The quantitation of p24 is an estimated index for antiviral activity of the compound. Percent inhibition was calculated with reference to control values (vehicle controls).
p-24 estimation was carried out using Advance biosciences kit as per the procedure detailed by supplier.

Cyto-toxicity, MTT assay = type: cell-based; conditions: read-out: Cytotoxicity % viability
Protocol: On day 1 calculate the number of cells required for the assay and seed 3×10^4 cells in 200 μl per well. Weigh the compound and dissolve it in DMSO to get 10 mM stock which is further diluted to 3 mM and 1 mM. The drugs from these stocks were added to plate to get final concentration of 100 μM, 30 μM and 10 μM. […] Incubate for 4 days in 5% CO2 incubator at 37° C. On day 4, 100 μl of medium was removed from each well without disturbing the cells. Add 10 μl of MTT reagent and incubate for 4 hours at 5% CO2 incubator at 37° C. for formation of crystals. Add 200 μl of 0.1N acidic isopropanol to dissolve the crystals and read the plate at 590 nm.

[2] = Single dose oral pharmacokinetic study; parameters: species or system mice; conditions: mouse, in vivo
Protocol: The test item was administered through oral route to animals (rat/mice) at 30 mg/kg dose in a suitable vehicle at 10 ml/kg dose volume. Blood samples (˜50 uL at each time point) were collected from retro-orbital plexus using K3 EDTA as anticoagulant in eppendorf tubes at defined time intervals under light ether anesthesia. The samples were centrifuged at 3500×g to separate plasma and stored at −80° C. until analysis.
Sample analysis: Test samples were analyzed using LC-MS-MS after developing fit-for-purpose method for each of test compound.

[3] = Human immunodeficiency virus 1, MT2, MT-2 cells
[4] = Human immunodeficiency virus 1, MT2, MT-2 cells, p24, read-out: Antiviral activity IC50

| SMILES | IC50 [1, 4] | AUC(0-t) ([2]; po, 30 mg/kg) | Cmax ([2]; po, 30 mg/kg) | also measured |
| --- | --- | --- | --- | --- |
| C=C(C)[C@@H]1CC[C@]2(C(=O)N3C[C@H](OCCOC)C[C@H]3c3nc(-c4ccccc4)cn3CCC(C)C)CC[C@]3(C)[C@H](CC[C@@H]4[C@@]5(C)CC[C@H](OC(=O)[C@H]6C[C@@H](C(=O)O)C6(C)C)C(C)(C)[C@@H]5CC[C@]43C)[C@@H]12 [Compound 26, (1R,3S)-3-((((1R,3aS,5aR,5bR,7aR,9S,11aR,11bR,13aR,13bR)-3a-((2S,4R)-2-(1-isopentyl-4-phenyl-1H-imidazol-2-yl)-4-(2-methoxyethoxy)pyrrolidine-1-carbonyl)-5a,5b,8,8,11a-pentamethyl-1-(prop-1-en-2-yl)icosahydro-1H-cyclopenta[a]chrysen-9-yl)oxy)carbonyl)-2,2-dimethylcyclobutane-1-carboxylic acid] | – | – | – | inhibition at 0.01 µM [1, 3]: 0%; inhibition at 0.1 µM [1, 3]: 15%; inhibition at 1 µM [1, 3]: 99%; viability at 4 days, 10 µM (Cyto-toxicity, MTT assay): 77%; viability at 4 days, 30 µM (Cyto-toxicity, MTT assay): 54%; viability at 4 days, 100 µM (Cyto-toxicity, MTT assay): 9% |
| C=C(C)[C@@H]1CC[C@]2(C(=O)N3CCC[C@H]3c3nc(-c4ccccc4)cn3CCP(=O)(O)O)CC[C@]3(C)[C@H](CC[C@@H]4[C@@]5(C)CC[C@H](OC(=O)[C@H]6C[C@@H](C(=O)O)C6(C)C)C(C)(C)[C@@H]5CC[C@]43C)[C@@H]12 [Compound 23, (1R,3S)-2,2-dimethyl-3-((((1R,3aS,5aR,5bR,7aR,9S,11aR,11bR,13aR,13bR)-5a,5b,8,8,11a-pentamethyl-3a-((S)-2-(4-phenyl-1-(2-phosphonoethyl)-1H-imidazol-2-yl)pyrrolidine-1-carbonyl)-1-(prop-1-en-2-yl)icosahydro-1H-cyclopenta[a]chrysen-9-yl)oxy)carbonyl)cyclo butane-1-carboxylic acid] | – | – | – | inhibition at 0.01 µM [1, 3]: 24%; inhibition at 0.1 µM [1, 3]: 21%; inhibition at 1 µM [1, 3]: 66%; viability at 4 days, 10 µM (Cyto-toxicity, MTT assay): 88%; viability at 4 days, 30 µM (Cyto-toxicity, MTT assay): 77%; viability at 4 days, 100 µM (Cyto-toxicity, MTT assay): 66% |
| C=C(C)[C@@H]1CC[C@]2(C(=O)N3CCC[C@H]3c3nc(-c4ccccc4)cn3CCN3CCOCC3)CC[C@]3(C)[C@H](CC[C@@H]4[C@@]5(C)CC[C@H](OC(=O)[C@H]6C[C@@H](C(=O)O)C6(C)C)C(C)(C)[C@@H]5CC[C@]43C)[C@@H]12 [Compound 3, (1R,3S)-2,2-dimethyl-3-((((1R,3aS,5aR,5bR,7aR,9S,11aR,11bR,13aR,13bR)-5a,5b,8,8,11a-pentamethyl-3a-((S)-2-(1-(2-morpholinoethyl)-4-phenyl-1H-imidazol-2-yl)pyrrolidine-1-carbonyl)-1-(prop-1-en-2-yl)icosahydro-1H-cyclopenta[a]chrysen-9-yl)oxy)carbonyl)cyclo butane-1-carboxylic acid] | 113 nM | 407 µg·h/mL | 14700 ng/mL | – |
| CN(C)CCn1cc(-c2cccnc2)nc1[C@@H]1CCCN1C(=O)[C@]12CC[C@@H](C3(C)CC3)[C@@H]1[C@H]1CC[C@@H]3[C@@]4(C)CC[C@H](OC(=O)[C@H]5C[C@@H](C(=O)O)C5(C)C)C(C)(C)[C@@H]4CC[C@@]3(C)[C@]1(C)CC2 [Compound 19, (1R,3S)-3-((((1R,3aS,5aR,5bR,7aR,9S,11aR,11bR,13aR,13bR)-3a-((S)-2-(1-(2-(dimethylamino)ethyl)-4-(pyridin-3-yl)-1H-imidazol-2-yl)pyrrolidine-1-carbonyl)-5a,5b,8,8,11a-pentamethyl-1-(1-methylcyclopropyl)icosahydro-1H-cyclopenta[a]chrysen-9-yl)oxy)carbonyl)-2,2-dimethylcyclobutane-1-carboxylic acid] | 7.76 nM | 97.4 µg·h/mL | 4260 ng/mL | – |
| C=C(C)[C@@H]1CC[C@]2(C(=O)N3CCC[C@H]3c3nc(-c4ccccc4)cn3CCOC)CC[C@]3(C)[C@H](CC[C@@H]4[C@@]5(C)CC[C@H](OC(=O)CC(C)(C)C(=O)O)C(C)(C)[C@@H]5CC[C@]43C)[C@@H]12 [Compound 17, 4-(((1R,3aS,5aR,5bR,7aR,9S,11aR,11bR,13aR,13bR)-3a-((S)-2-(1-(2-methoxyethyl)-4-phenyl-1H-imidazol-2-yl)pyrrolidine-1-carbonyl)-5a,5b,8,8,11a-pentamethyl-1-(prop-1-en-2-yl)icosahydro-1H-cyclopenta[a]chrysen-9-yl)oxy)-2,2-dimethyl-4-oxobutanoic acid] | 0.3 nM | 271 µg·h/mL | 13000 ng/mL | – |
| C=C(C)[C@@H]1CC[C@]2(C(=O)N3CCC[C@H]3c3nc(-c4ccc(F)cc4)cn3CCP(=O)(OCC)OCC)CC[C@]3(C)[C@H](CC[C@@H]4[C@@]5(C)CC[C@H](OC(=O)[C@H]6C[C@@H](C(=O)O)C6(C)C)C(C)(C)[C@@H]5CC[C@]43C)[C@@H]12 [Compound 24, (1R,3S)-3-((((1R,3aS,5aR,5bR,7aR,9S,11aR,11bR,13aR,13bR)-3a-((S)-2-(1-(2-(diethoxyphosphoryl)ethyl)-4-(4-fluorophenyl)-1H-imidazol-2-yl)pyrrolidine-1-carbonyl)-5a,5b,8,8,11a-pentamethyl-1-(prop-1-en-2-yl)icosahydro-1H-cyclopenta[a]chrysen-9-yl)oxy)carbonyl)-2,2-dimethylcyclobutane-1-carboxylic acid] | – | – | – | IC50 ([1]; Human immunodeficiency virus 1, MT2, read-out: Antiviral activity IC50 (nM)): 0.972 nM; AUC(0-t) ([2]; Mice oral PK @30 mg/kg, plasma, read-out: AUC 0-t): 89.4 µg·h/mL; Cmax ([2]; Mice oral PK @30 mg/kg, plasma, read-out: Cmax): 2550 ng/mL |
| C=C(C)[C@@H]1CC[C@]2(C(=O)N3CCC[C@H]3c3nc(-c4ccccc4)cn3C)CC[C@]3(C)[C@H](CC[C@@H]4[C@@]5(C)CC[C@H](OC(=O)CC(C)(C)C(=O)O)C(C)(C)[C@@H]5CC[C@]43C)[C@@H]12 [Compound 15, 2,2-dimethyl-4-oxo-4-(((1R,3aS,5aR,5bR,7aR,9S,11aR,11bR,13aR,13bR)-5a,5b,8,8,11a-pentamethyl-3a-((S)-2-(1-methyl-4-phenyl-1H-imidazol-2-yl)pyrrolidine-1-carbonyl)-1-(prop-1-en-2-yl)icosahydro-1H-cyclopenta[a]chrysen-9-yl)oxy)butanoic acid] | 7.42 nM | 376 µg·h/mL | 15300 ng/mL | – |
| C=C(C)[C@@H]1CC[C@]2(C(=O)N3CCC[C@H]3c3nc(-c4ccncc4)cn3CCN(C)C)CC[C@]3(C)[C@H](CC[C@@H]4[C@@]5(C)CC[C@H](OC(=O)[C@H]6C[C@@H](C(=O)O)C6(C)C)C(C)(C)[C@@H]5CC[C@]43C)[C@@H]12 [Compound 8, (1R,3S)-3-((((1R,3aS,5aR,5bR,7aR,9S,11aR,11bR,13aR,13bR)-3a-((S)-2-(1-(2-(dimethylamino)ethyl)-4-(pyridin-4-yl)-1H-imidazol-2-yl)pyrrolidine-1-carbonyl)-5a,5b,8,8,11a-pentamethyl-1-(prop-1-en-2-yl)icosahydro-1H-cyclopenta[a]chrysen-9-yl)oxy)carbonyl)-2,2-dimethyl cyclobutane-1-carboxylic acid] | 12.5 nM | 243 µg·h/mL | 9080 ng/mL | – |
| C=C(C)[C@@H]1CC[C@]2(C(=O)N3CCC[C@H]3c3nc(-c4ccccc4)cn3CCN(C)C)CC[C@]3(C)[C@H](CC[C@@H]4[C@@]5(C)CC[C@H](OC(=O)[C@H]6C[C@@H](C(=O)O)C6(C)C)C(C)(C)[C@@H]5CC[C@]43C)[C@@H]12 [Compound 5, (1R,3S)-3-((((1R,3aS,5aR,5bR,7aR,9S,11aR,11bR,13aR,13bR)-3a-((S)-2-(1-(2-(dimethylamino)ethyl)-4-phenyl-1H-imidazol-2-yl)pyrrolidine-1-carbonyl)-5a,5b,8,8,11a-pentamethyl-1-(prop-1-en-2-yl)icosahydro-1H-cyclopenta[a]chrysen-9-yl)oxy)carbonyl)-2,2-dimethylcyclobutane-1-carboxylic acid] | 73.2 nM | 292 µg·h/mL | 10400 ng/mL | – |
| C=C(C)[C@@H]1CC[C@]2(C(=O)N3CCC[C@H]3c3nc(-c4ccccc4)cn3CCN(C)C)CC[C@]3(C)[C@H](CC[C@@H]4[C@@]5(C)CC[C@H](OC(=O)CC(C)(C)C(=O)O)C(C)(C)[C@@H]5CC[C@]43C)[C@@H]12 [Compound 16, 4-(((1R,3aS,5aR,5bR,7aR,9S,11aR,11bR,13aR,13bR)-3a-((S)-2-(1-(2-(dimethylamino)ethyl)-4-phenyl-1H-imidazol-2-yl)pyrrolidine-1-carbonyl)-5a,5b,8,8,11a-pentamethyl-1-(prop-1-en-2-yl)icosahydro-1H-cyclopenta[a]chrysen-9-yl)oxy)-2,2-dimethyl-4-oxo butanoic acid] | 8.48 nM | 294 µg·h/mL | 9030 ng/mL | – |
